Measured values published in PMC3925085, “Subditine, a New Monoterpenoid Indole Alkaloid from Bark of Nauclea subdita (Korth.) Steud. Induces Apoptosis in Human Prostate Cancer Cells” (PLoS ONE, 2014).

Experiments:
Assay type in all cases: cell-based
[1] = system: PC-3 human prostate cancer cells; test: MTT cell proliferation assay, PC-3; details: for IC50: Homo sapiens, MTT, 24 hours, PC-3, mean ± S.D.
Experimental: (§1) Human prostate normal cell line (RWPE-1) and human prostate cancer cell lines; LNCaP and PC-3, were purchased from the American Type Culture Collection (ATCC, Manassas, Virginia, USA). LNCaP and PC-3 cells were grown in Roswell Park Memorial Institute medium (RPMI) supplemented with 10% heat-inactivated fetal bovine serum (FBS, Sigma-Aldrich, St. Louis, MO), 1% penicillin and streptomycin. RWPE-1 cells were maintained in Keratinocyte Serum Free Medium (K-SFM, ATCC) supplemented with bovine pituitary extract (BPE) and human recombinant epidermal growth factor (EGF). Mediums were supplemented with 10% heat-inactivated fetal calf serum (Sigma.), 100 U/ml penicillin and […] streptomycin (Flowlab, Sydney, Australia). All cells were maintained in a humidified atmosphere of 5% CO2 in air at 37°C incubator.
(§2) The anti-proliferative activity was evaluated by performing MTT assays as previously described with minor modifications. Briefly, cells were seeded 24 hours prior to treatment in a 96-well plate at 5×10^4 cells/well in order to obtain 70% to 80% confluent cultures. The compounds were dissolved in DMSO (Sigma Chemical Co., St. Louis, Missouri, USA) followed by a 2×serial dilution for 10 points ranged from 0.825 µM to 100 µM. The 96-well plate was incubated for 24 hours at 37°C in a humidified atmosphere with 5% CO2. At the end of incubation, 50 µl of MTT solution (2 mg/ml; Sigma) was added to each well. The plate was then incubated for 4 hours. All medium was removed and the purple formazan crystal formed at the bottom of the wells was dissolved with 200 µl DMSO for 20 minutes. The absorbance at 570 nm was read on a spectrophotometric plate reader (Hidex). The proportion of surviving cells was calculated as: […]
(§3) Dose-response curves were constructed to obtain the IC50 values. Experimental data were derived from 3 independent experiments. The selectivity index was obtained by mean IC50 RWPE-1/mean IC50 of LNCaP or PC-3.

[2] = system: LNCaP human prostate cancer cells; test: MTT cell proliferation assay, LNCaP; details: for IC50: Homo sapiens, MTT, 24 hours, LNCaP, mean ± S.D.
Experimental: as §1, §2, §3

[3] = system: RWPE-1 human normal prostate epithelial cells; test: MTT cell proliferation assay, RWPE-1; details: 24 hours, RWPE-1 normal cells, mean ± S.D.
Experimental: as §1, §2, §3

| Structure (SMILES) | IC50 [1] | IC50 [2] | IC50 [3] | selectivity index (SI) PC-3 ([1]; mean IC50 RWPE-1/mean IC50 of PC-3) | selectivity index (SI) LNCaP ([2]; mean IC50 RWPE-1/mean IC50 of LNCaP) |
| --- | --- | --- | --- | --- | --- |
| Cc1cc2cc3n(c(=O)c2cn1)CCc1c-3[nH]c2ccccc12 [Angustidine, angustidine] | 84.9 ± 1.48 µM | 140.27 ± 0.1 µM | 36.07 ± 0.05 µM | – | – |
| C=Cc1cncc2c(=O)n3c(cc12)-c1[nH]c2ccccc2c1CC3 [Angustine, angustine] | 122 ± 3.73 µM | 149.16 ± 0.09 µM | 98.39 ± 0.1 µM | – | – |
| CC(O)c1cncc2c(=O)n3c(cc12)-c1[nH]c2ccccc2c1CC3 (centres unmarked) [Angustoline, 1-(1-Hydroxyethyl)-7,8-dihydroindolo[2,3-a]pyridine[3,4-g]quinolizin-5(13H)-one] | 67.3 ± 0.87 µM | 58.09 ± 0.05 µM | 65.94 ± 0.04 µM | – | – |
| O=c1c2cnccc2cc2n1CCc1c-2[nH]c2ccccc12 [Nauclefine, nauclefine] | 92.1 ± 1.28 µM | 86.35 ± 0.09 µM | 72.85 ± 0.06 µM | – | – |
| CC(=O)O[C@H]1C(=O)[C@@]2(C)[C@H]([C@H](OC(=O)c3ccccc3)[C@]3(O)C[C@H](OC(=O)[C@H](O)[C@@H](NC(=O)c4ccccc4)c4ccccc4)C(C)=C1C3(C)C)[C@]1(OC(C)=O)CO[C@@H]1C[C@@H]2O [Paclitaxel, paclitaxel, reference compound] | 1.33 ± 0.02 µM | 1.27 ± 0.04 µM | 1.58 ± 0.06 µM | 1.19 | 1.24 |
